Results as given in article PMC5063900, “A phase 1 study of the safety, tolerability, pharmacokinetics, and pharmacodynamics of TAK-063, a selective PDE10A inhibitor” (Psychopharmacology, 2016).
Marks after values point to notes of the source that are not given here.

How the values were obtained:
[1] = Plasma and urine pharmacokinetics after single oral dose under fasting conditions; assay type: in vivo, human; settings: for Vz/F (volume of distribution) / AUC(0-inf) / T 1/2 / C max / T max / CL/F (oral clearance) / CL/F / Vz/F: plasma
Method: Healthy Japanese and non-Japanese subjects between 18 and 55 years of age were recruited to participate in the study. Criteria for exclusion included prior treatment with any investigational compound within 30 days of the first TAK-063 dose, a positive test for drugs of abuse or nicotine, and an increased risk for suicide. Subjects were randomized into 1 of 6 dose cohorts (3, 10, 30, 100, 300, and 1000 mg), with each cohort containing 11 TAK-063 subjects (five Japanese, six non-Japanese) and three placebo subjects (one Japanese, two non-Japanese) receiving a single dose under fasting conditions. Following a washout period of 7 days, subjects in cohort 3 (100 mg) received the same dose (100 mg) but under fed conditions. Serial plasma and urine samples were collected from all subjects prior to dosing and at specific time points or intervals up to 96 h postdose. Pharmacokinetic samples were processed immediately and frozen at −20 °C as duplicate sets. Plasma concentrations of TAK-063 and its metabolite M-I were subsequently measured by validated liquid chromatography-tandem mass spectrometry with a validated range of 0.5 to 1000 ng/mL for both analytes. The PK parameters analyzed for TAK-063 and its metabolite M-I in plasma and urine included area under the plasma concentration-time curve from time 0 to infinity (AUC (0-inf)), maximum observed plasma concentration (C max), time to reach C max (T max), terminal elimination half-life (T 1/2), oral clearance (CL/F), volume of distribution (Vz/F), and renal clearance (CLr). Metabolite-to-parent ratios were estimated from C max and AUC (0-inf) data. All statistical analyses were generated using SAS Version 9.2 (SAS, Cary, NC, USA). The PK parameters were derived using non-compartmental methods with WinNonlin Enterprise Version 6.3 (Pharsight Corp., Mountain View, CA, USA). Frequency or descriptive statistics were used for summary of data. Where indicated, percent coefficient of variation was included in the summary of continuous data. All statistical tests were 2-tailed at α = 0.05 level for significance unless otherwise stated. A power model was used to evaluate dose proportionality by race for fasted subjects; in the event of no observed race effect, dose proportionality was assessed for all subjects. To evaluate the food effect, a paired t test was performed on T max and natural log-transformed C max, and AUCs. An ANCOVA model with baseline scores and race as covariates was used to assess the effects of TAK-063 on CNSVS domain scores.

[2] = stated in discussion without method or reference; cited from earlier work
[3] = fasting, all subjects, TAK-063 300 mg (n = 8), arithmetic mean (% CV)
[4] = fasting, all subjects, TAK-063 300 mg (n = 11; TAK-063 n = 8), arithmetic mean (% CV)
[5] = fasting, all subjects, TAK-063 1000 mg (n = 11), arithmetic mean (% CV)
[6] = non-Japanese subjects, TAK-063 3 mg (n = 6), arithmetic mean
[7] = non-Japanese subjects, TAK-063 3 mg (n = 6; M-I n = 5), arithmetic mean
[8] = non-Japanese subjects, TAK-063 10 mg (n = 6), arithmetic mean
[9] = non-Japanese subjects, TAK-063 30 mg (n = 6), arithmetic mean
[10] = non-Japanese subjects, TAK-063 100 mg (n = 5), arithmetic mean
[11] = non-Japanese subjects, TAK-063 100 mg (n = 6; TAK-063 n = 5), arithmetic mean
[12] = non-Japanese subjects, TAK-063 300 mg (n = 4), arithmetic mean
[13] = non-Japanese subjects, TAK-063 300 mg (n = 6; TAK-063 n = 4), arithmetic mean
[14] = non-Japanese subjects, TAK-063 1000 mg (n = 6), arithmetic mean

Which “Vz/F (volume of distribution)” value ([1]; fasting, all subjects, TAK-063 100 mg (n = 11; TAK-063 n = 9), arithmetic mean (% CV)) does the source give for `COc1cn(-c2ccc(-n3cccn3)cc2F)nc(-c2ccnn2-c2ccccc2)c1=O` [TAK-063] here?
The value was 2802.2 (46)^c L.

What about the “AUC(0-inf)” value [1, 3] of the same compound?
The value was 1900.8 (39)^d ng·h/mL.

And the “T 1/2” value [1, 3]?
The value was 20.2 (26)^d h.

What about the C max ([1]; fasting, all subjects, TAK-063 300 mg (n = 11), arithmetic mean (% CV)) of the same compound?
The C max was 100.3 (18) ng/mL.

What about the T max ([1]; fasting, all subjects, TAK-063 300 mg (n = 11), median (minimum, maximum)) of the same compound?
Its T max is 4.0 (1.9, 8.0) h.

What about the “CL/F (oral clearance)” value [1, 4] of the same compound?
Its value is 185.9 (48)^d L/h.

What about the “Vz/F (volume of distribution)” value [1, 4] of the same compound?
Its value is 5570.7 (57)^d L.

And the “AUC(0-inf)” value [1, 5]?
Its value is 5788.1 (81) ng·h/mL.

And the C max [1, 5]?
The C max was 245.8 (34) ng/mL.

What about the “CL/F (oral clearance)” value [1, 5] of the same compound?
The value was 232.0 (42) L/h.

What about the “T 1/2” value [1, 5] of the same compound?
The value was 14.6 (43) h.

And the “Vz/F (volume of distribution)” value [1, 5]?
The value was 5277.2 (81) L.

And the T max ([1]; fasting, all subjects, TAK-063 1000 mg (n = 11), median (minimum, maximum))?
The T max was 4.0 (2.0, 12.0) h.

What about the C max [1, 6] of the same compound?
Its C max is 8.2 ng/mL.

What about the CL/F [1, 6] of the same compound?
Its CL/F is 15.2 L/h.

What about the Vz/F [1, 6] of the same compound?
Its Vz/F is 521.6 L.

And the T max ([1]; non-Japanese subjects, TAK-063 3 mg (n = 6), median)?
The T max was 5.0 h.

What about the “AUC(0-inf)” value [1, 7] of the same compound?
Its value is 240.4 ng·h/mL.

What about the “T 1/2” value [1, 7] of the same compound?
Its value is 24.2 h.

What about the “AUC(0-inf)” value [1, 8] of the same compound?
The value was 507.9 ng·h/mL.

What about the C max [1, 8] of the same compound?
The C max was 23.8 ng/mL.

What about the CL/F [1, 8] of the same compound?
Its CL/F is 21.2 L/h.

What about the “T 1/2” value [1, 8] of the same compound?
Its value is 21.3 h.

What about the Vz/F [1, 8] of the same compound?
Its Vz/F is 627.3 L.

And the T max ([1]; non-Japanese subjects, TAK-063 10 mg (n = 6), median)?
Its T max is 5.0 h.

What about the “AUC(0-inf)” value [1, 9] of the same compound?
The value was 983.9 ng·h/mL.

And the C max [1, 9]?
Its C max is 39.5 ng/mL.

And the CL/F [1, 9]?
The CL/F was 31.4 L/h.

And the “T 1/2” value [1, 9]?
Its value is 22.6 h.

What about the Vz/F [1, 9] of the same compound?
Its Vz/F is 1009.2 L.

What about the T max ([1]; non-Japanese subjects, TAK-063 30 mg (n = 6), median) of the same compound?
The T max was 5.0 h.

What about the “AUC(0-inf)” value [1, 10] of the same compound?
The value was 1364.9 ng·h/mL.

And the “T 1/2” value [1, 10]?
Its value is 27.8 h.

And the C max ([1]; non-Japanese subjects, TAK-063 100 mg (n = 6), arithmetic mean)?
The C max was 72.7 ng/mL.

What about the T max ([1]; non-Japanese subjects, TAK-063 100 mg (n = 6), median) of the same compound?
Its T max is 3.5 h.

What about the CL/F [1, 11] of the same compound?
Its CL/F is 84.0 L/h.

What about the Vz/F [1, 11] of the same compound?
Its Vz/F is 3213.2 L.

And the “AUC(0-inf)” value [1, 12]?
The value was 2165.7 ng·h/mL.

And the “T 1/2” value [1, 12]?
Its value is 20.0 h.

And the C max ([1]; non-Japanese subjects, TAK-063 300 mg (n = 6), arithmetic mean)?
Its C max is 102.1 ng/mL.

What about the T max ([1]; non-Japanese subjects, TAK-063 300 mg (n = 6), median) of the same compound?
The T max was 3.5 h.

And the CL/F [1, 13]?
Its CL/F is 159.0 L/h.

What about the Vz/F [1, 13] of the same compound?
Its Vz/F is 4731.5 L.

And the “AUC(0-inf)” value [1, 14]?
The value was 6502.0 ng·h/mL.

And the C max [1, 14]?
The C max was 230.7 ng/mL.

And the CL/F [1, 14]?
The CL/F was 230.6 L/h.

And the “T 1/2” value [1, 14]?
The value was 17.0 h.

And the Vz/F [1, 14]?
Its Vz/F is 6380.3 L.

What about the T max ([1]; non-Japanese subjects, TAK-063 1000 mg (n = 6), median) of the same compound?
Its T max is 4.0 h.

What about the “CLr (renal clearance)” value ([1]; urine, Japanese subjects, TAK-063 30 mg (n = 5), arithmetic mean) of the same compound?
Its value is 4.0 mL/h.

What about the “CLr (renal clearance)” value ([1]; urine, Japanese subjects, TAK-063 100 mg (n = 5), arithmetic mean) of the same compound?
Its value is 7.9 mL/h.

And the “CLr (renal clearance)” value ([1]; urine, Japanese subjects, TAK-063 300 mg (n = 5), arithmetic mean)?
The value was 5.9 mL/h.

And the “CLr (renal clearance)” value ([1]; urine, Japanese subjects, TAK-063 1000 mg (n = 5), arithmetic mean)?
The value was 6.8 mL/h.

What about the Renal elimination ([1]; urine, fasting) of the same compound?
The Renal elimination was “negligible”.

And the “CLr (renal clearance)” value ([1]; urine, fasting, all subjects, TAK-063 30 mg (n = 11), arithmetic mean (% CV))?
The value was 2.4 (123) mL/h.

What about the “CLr (renal clearance)” value ([1]; urine, fasting, all subjects, TAK-063 100 mg (n = 11), arithmetic mean (% CV)) of the same compound?
Its value is 5.9 (78) mL/h.

What about the “CLr (renal clearance)” value ([1]; urine, fasting, all subjects, TAK-063 300 mg (n = 11), arithmetic mean (% CV)) of the same compound?
The value was 6.1 (63) mL/h.

What about the “CLr (renal clearance)” value ([1]; urine, fasting, all subjects, TAK-063 1000 mg (n = 11), arithmetic mean (% CV)) of the same compound?
The value was 6.8 (56) mL/h.

And the CLr ([1]; urine, non-Japanese subjects, TAK-063 30 mg (n = 6), arithmetic mean (% CV))?
Its CLr is 1.1 (179) mL/h.

And the CLr ([1]; urine, non-Japanese subjects, TAK-063 100 mg (n = 6), arithmetic mean (% CV))?
The CLr was 4.2 (84) mL/h.

What about the CLr ([1]; urine, non-Japanese subjects, TAK-063 300 mg (n = 6), arithmetic mean (% CV)) of the same compound?
Its CLr is 6.2 (63) mL/h.

What about the CLr ([1]; urine, non-Japanese subjects, TAK-063 1000 mg (n = 6), arithmetic mean (% CV)) of the same compound?
Its CLr is 6.8 (61) mL/h.

And the Aqueous solubility [2]?
Its Aqueous solubility is “low”.
